Test system: Akt phosphorylation (S473)
Assay: Western blot of Akt phosphorylation (S473) in U2-OS cells
Format: cell-based
Settings: 1-hour pre-treatment
Protocol: Fig.2: MW01 and MW05 are potent and selective kinase inhibitors. […] Heatmap indicates lower IC50. […] (C) Western blot analysis of NF-κB p65 phosphorylation (S536) and Akt phosphorylation (S473) following 1-hour pre-treatment with DMSO, MW01 (10 µM), MW05 (10µM), PI-103 (1 µM), NU7441 (1 µM), or MU1210 (1 µM) in unstimulated, after 90 min irradiation (IR, 20 Gy), or after 20 min TNFα (10 ng/ml) conditions in U2-OS cells. (D) mRNA expression analysis of CLK2 (top), 48 hours after transfection with siNC, CLK2 si1, or CLK2 si2. mRNA expression analysis of NFKBIA (bottom), 48 hours after transfection with siNC, CLK2 si1, orCLK2 si2. Values are normalized to unstimulated siNC expressing cells. Statistical comparison was made between experimental conditions and respective paired siNC expressing controls. ns: not significant; **, ***, ****: p<0.01, p<0.001, p<0.000. (E) Western blot analysis of U2-OS cells after transfection with siNC or CLK2 si2 unstimulated, after irradiation (IR), or after TNFα treatment. Vinculin used as loading control. (F) IC50 (nM) of all CLK isoforms for MW01 and MW05. (G) Quantification from (E) with CLK2 knockdown and p-p65 quantification (top left and top right, respectively) and CLK4 knockdown and p-p65 (bottom left and bottom right, respectively. ns: not significant; **, ***, ****: p<0.01, p<0.001, p<0.0001.
Cells were collected by scraping and lysed in Baeuerle lysis buffer supplemented with Protease (Thermo Fisher Scientific, 78429) and Phosphatase (Thermo Fisher Scientific, 78420) inhibitors after the appropriate treatment and time point. Proteins were quantified by Bradford assay (Bio-Rad, 5000006) and 20-50 µg of extracted proteins were loaded on 4-20% Protein Gel (Bio-Rad, 4568096) and then transferred onto a PVDF membrane (Bio-Rad, 1620177) using Tris-Glycine buffer with 20% of methanol. Blocking was performed for 1h with 5% not-fat dry milk in PBS 1X. […] The membranes were analyzed by ECL (Thermo Fisher Scientific, 34580) and detected by ChemiDoc XRS+ (Bio-Rad) using ImageLab software (Bio-Rad). […]

Compound	reduction of p-Akt
COc1ccc2c(c1OC)c(=O)n1c3ccc(O)cc3c3ccnc2c31 [MW01, 5-Hydroxy-10,11-dimethoxy-9H-benzo[c]indolo[3,2,1-ij][1,5]naphthyridin-9-one]	complete reduction
COc1ccc2cc3c(N)nn(C(=O)c4cccc(N(C)C)c4)c3nc2c1 [MW05, (3-Amino-7-methoxypyrazolo[3,4-b]quinolin-1-yl)-[3-(dimethylamino)phenyl]methanone]	partial reduction
